Assay results as given in patent publication US20240124451A1, “PHTHALAZINE DERIVATIVES USEFUL AS INHIBITORS OF NOD-LIKE RECEPTOR PROTEIN 3” (Merck Sharp & Dohme LLC, priority 2022, published 2024).

Each compound was assayed against T1, NLRP3 inflammasome (Homo sapiens, UniProt Q96P20) (assay: ASC-SPECK formation in THP-1 cells after gramicidin stimulation (NLRP3 inflammasome activation)). Details: PMA-treated human monocytic THP-1 cells, compound 1 h before 12.5 ug/ml gramicidin, 3 h, ASC SPECK imaging; read-out: EC50 (nM) for Examples that inhibit NLRP3 inflammasome activation.
T1 construct: host or cells: THP-1 human monocytic cells, PMA-treated, stimulated with gramicidin
Format: cell-based
Procedure: The ability of compounds to inhibit NLRP3 inflammasome activation was determined in vitro by monitoring formation of the ASC-SPECK in human monocytic THP-1 cells after stimulation. THP-1 cells (ATCC catalog #TIB-202) were maintained in complete growth media containing Roswell Park Memorial Institute RPMI (ATCC catalog #30-2001), 10% heat inactivated fetal bovine serum, 1× penicillin/streptomycin and 0.05 mM 2-mercaptoethanol. At the start of the assay, undifferentiated THP-1 cells were plated at a density of 20,000 cells per well in a 384-well plate (Poly-D-lysine coated Cell Carrier Ultra microplate, Perkin Elmer catalog #6057500) in complete growth media supplemented with 10 ng/ml phorbol 12-myristate 13-acetate (PMA; Sigma catalog #P8139), and then incubated overnight. The next day, media was replaced with assay media [RPMI (Gibco catalog #11875-093), 0.01% bovine serum albumin (BSA)]. Compounds were serially diluted in DMSO and then added to wells one hour prior to the addition of 12.5 ug/ml Gramicidin (Enzo Lifescience, catalog #ALX-350-233-M005). All incubations were carried out at 37° C. (5% CO2/95% air). Following a 3-hour treatment with gramicidin, cells are fixed with 4% paraformaldehyde and stored at 4° C. until immunofluorescence staining.
Immunofluorescence staining: Anti-ASC antibody (MBL catalog #D086-3) was desalted and labeled with Alexa 488 antibody labeling kit (Thermo catalog #A20181) prior to use as described below. After fixation, the following steps were carried out at room temperature. Cells were first permeabilized with 0.3% Triton X-100 in phosphate-buffered saline (PBS) for 15 minutes and then incubated in blocking buffer containing 5% goat serum, 0.3% tween-20 and 0.03% sodium azide in PBS for 1 hour. Cells were stained with a mixture of ASC-Alexa 488 antibody (diluted 1:200 in blocking buffer) and nuclear stain DRAQ5 (1:5000 in blocking buffer, Thermo catalog #62251) in blocking buffer for 1 hour. Following a wash with 0.3% Tween-20 in PBS, plates were imaged with an Opera Phenix High Content Screening System. The number of DRAQ5 positive cells containing ASC SPECKS were quantified in each well.
Data analysis: EC50 values were calculated by standard curve-fitting analysis using an internally developed program in TIBCO Spotfire software.

T1 sequence (Q96P20 whole entry): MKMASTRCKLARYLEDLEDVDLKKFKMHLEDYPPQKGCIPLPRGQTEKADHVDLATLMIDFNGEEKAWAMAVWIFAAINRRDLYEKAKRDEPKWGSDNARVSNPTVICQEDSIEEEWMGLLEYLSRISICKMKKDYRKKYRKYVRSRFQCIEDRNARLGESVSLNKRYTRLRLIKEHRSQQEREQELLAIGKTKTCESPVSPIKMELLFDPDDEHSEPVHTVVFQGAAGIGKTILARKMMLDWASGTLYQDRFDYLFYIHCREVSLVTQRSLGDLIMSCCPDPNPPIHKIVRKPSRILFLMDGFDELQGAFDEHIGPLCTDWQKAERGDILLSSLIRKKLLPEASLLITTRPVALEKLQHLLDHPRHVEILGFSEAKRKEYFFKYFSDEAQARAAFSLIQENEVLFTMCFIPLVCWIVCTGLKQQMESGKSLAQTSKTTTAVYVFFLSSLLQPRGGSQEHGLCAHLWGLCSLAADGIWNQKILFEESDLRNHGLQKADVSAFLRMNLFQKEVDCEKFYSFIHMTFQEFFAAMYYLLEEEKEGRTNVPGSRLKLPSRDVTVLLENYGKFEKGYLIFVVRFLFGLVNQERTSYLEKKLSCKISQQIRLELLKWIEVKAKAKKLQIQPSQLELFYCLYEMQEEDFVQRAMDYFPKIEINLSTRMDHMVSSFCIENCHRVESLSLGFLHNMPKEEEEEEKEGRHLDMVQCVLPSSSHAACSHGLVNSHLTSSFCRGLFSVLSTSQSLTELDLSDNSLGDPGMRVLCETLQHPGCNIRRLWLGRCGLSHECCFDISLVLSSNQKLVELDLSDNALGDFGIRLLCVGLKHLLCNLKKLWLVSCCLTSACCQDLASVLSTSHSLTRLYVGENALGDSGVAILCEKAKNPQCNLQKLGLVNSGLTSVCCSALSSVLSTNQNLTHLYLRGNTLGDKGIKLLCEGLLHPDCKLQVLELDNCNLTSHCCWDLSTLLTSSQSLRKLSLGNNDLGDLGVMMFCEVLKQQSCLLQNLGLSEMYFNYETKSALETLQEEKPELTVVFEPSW

SMILES | EC50 [nM]
C[C@@H]1C[C@](O)(c2nnc(-c3ccc(C(F)(F)F)cc3O)c3cccnc23)C[C@H](C)O1 [Example 54, (2R,4s,6S)-4-(5-(2-hydroxy-4-(trifluoromethyl)phenyl)pyrido[2,3-d]-pyridazin-8-yl)-2,6-dimethyltetrahydro-2H-pyran-4-ol] | 1100
CN(C)CC1(O)CCN(c2nnc(-c3ccc(C(F)(F)F)cc3O)c3cccnc23)C1 (racemic) [Example 46, (R and S)-3-((dimethylamino)methyl)-1-(5-(2-hydroxy-4-(trifluoromethyl)phenyl)pyrido [2,3-d]pyridazin-8-yl)pyrrolidin-3-ol] | 831
CC(=O)N1CCCC12CCN(c1nnc(-c3ccc(C(F)(F)F)cc3O)c3cccnc13)CC2 [Example 34, 1-(8-(5-(2-hydroxy-4-(trifluoromethyl)phenyl)pyrido [2,3-d]pyridazin-8-yl)-1,8-diazaspiro[4.5]decan-1-yl)ethan-1-one] | 1510
Oc1cc(C(F)(F)F)ccc1-c1nnc(N2CCC3(CCCO3)CC2)c2ncccc12 [Example 30, 2-(8-(1-oxa-8-azaspiro[4.5]decan-8-yl)pyrido[2,3-d]pyridazin-5-yl)-5-(trifluoromethyl)phenol] | 1270
CC1(C)CCOC12CCN(c1nnc(-c3ccc(C(F)(F)F)cc3O)c3cccnc13)CC2 [Example 37, 2-(8-(4,4-dimethyl-1-oxa-8-azaspiro[4.5]decan-8-yl)pyrido[2,3-d]pyridazin-5-yl)-5-(trifluoromethyl)phenol] | 1130
Oc1cc(C(F)(F)F)ccc1-c1nnc(N2CCC(O)(C(F)(F)F)C2)c2ncccc12 (racemic) [Example 27, (R and S)-1-(5-(2-hydroxy-4-(trifluoromethyl)phenyl)pyrido [2,3-d]pyridazin-8-yl)-3-(trifluoromethyl)pyrrolidin-3-ol] | 1230
C[C@]1(O)CCN(c2nnc(-c3ccc(C(F)(F)F)cc3O)c3cc(C(F)F)cnc23)C1 [Example 57] | 1570
CCC1(O)CCN(c2nnc(-c3ccc(C(F)(F)F)cc3O)c3cccnc23)C1 (racemic) [Example 47, (R and S)-3-ethyl-1-(5-(2-hydroxy-4-(trifluoromethyl)phenyl)pyrido [2,3-d]pyridazin-8-yl)pyrrolidin-3-ol] | 494
Oc1cc(C(F)(F)F)ccc1-c1nnc(N2CC(O)C3(CC3)C2)c2ncccc12 (racemic) [Example 44, (R and S)-5-(5-(2-hydroxy-4-(trifluoromethyl)phenyl)pyrido [2,3-d]pyridazin-8-yl)-5-azaspiro[2.4]heptan-7-ol] | 591
Oc1cc(C(F)(F)F)ccc1-c1nnc(N2C[C@@H]3[C@H](C2)C3(F)F)c2ncccc12 [Example 41, 2-(8-(6,6-difluoro-3-azabicyclo[3.1.0]hexan-3-yl)pyrido[2,3-d]pyridazin-5-yl)-5-(trifluoromethyl)phenol] | 999
Oc1cc(C(F)(F)F)ccc1-c1nnc(N2CCC3(CCOC3)CC2)c2ncccc12 [Example 31, 2-(8-(2-oxa-8-azaspiro[4.5]decan-8-yl)pyrido[2,3-d]pyridazin-5-yl)-5-(trifluoromethyl)phenol] | 915
C[C@@H]1CN(c2nnc(-c3ccc(C(F)(F)F)cc3OC(F)F)c3ccncc23)C[C@H](C)O1 [Example 7, (cis)-4-(1-(2-(difluoromethoxy)-4-(trifluoromethyl)phenyl)pyrido[3,4-d]pyridazin-4-yl)-2,6-dimethylmorpholine] | 570
Cc1cccc2c(N3C[C@@H](C)O[C@@H](C)C3)nnc(-c3ccc(C(F)(F)F)cc3O)c12 [Example 15, 2-(4-((cis)-2,6-dimethylmorpholino)-8-methylphthalazin-1-yl)-5-(trifluoromethyl)phenol] | 3680
Cc1ccc2c(N3C[C@@H](C)O[C@@H](C)C3)nnc(-c3ccc(C(F)(F)F)cc3O)c2c1 [Example 21, 2-(4-((cis)-2,6-dimethylmorpholino)-7-methylphthalazin-1-yl)-5-(trifluoromethyl)phenol] | 815
C[C@@H]1C[C@@](O)(c2nnc(-c3ccc(C(F)(F)F)cc3O)c3cccnc23)C[C@H](C)O1 [Example 55, (2R,4r,6S)-4-(5-(2-hydroxy-4-(trifluoromethyl)phenyl)pyrido[2,3-d]-pyridazin-8-yl)-2,6-dimethyltetrahydro-2H-pyran-4-ol] | 1340
CN1C(=O)CCC12CCN(c1nnc(-c3ccc(C(F)(F)F)cc3O)c3cccnc13)CC2 [Example 39, 8-(5-(2-hydroxy-4-(trifluoromethyl)phenyl)pyrido [2,3-d]pyridazin-8-yl)-1-methyl-1,8-diazaspiro[4.5]decan-2-one] | 563
CC(C)(O)[C@@H]1CCN(c2nnc(-c3ccc(C(F)(F)F)cc3O)c3cccnc23)C1 [Example 49, (R)-2-(8-(3-(2-hydroxypropan-2-yl)pyrrolidin-1-yl)pyrido[2,3-d]pyridazin-5-yl)-5-(trifluoromethyl)phenol] | 1790
C[C@@H]1CN(c2nnc(-c3ccc(C(F)(F)F)cc3O)c3cnccc23)C[C@H](C)O1 [Example 5, 2-(1-((cis)-2,6-dimethylmorpholino)pyrido[3,4-d]pyridazin-4-yl)-5-(trifluoromethyl)phenol] | 556

Now those with a lower EC50, led by results:

EC50 [nM] | SMILES
304 | O=C1NCC2(CCN(c3nnc(-c4ccc(C(F)(F)F)cc4O)c4cccnc34)CC2)O1 [Example 40, 8-(5-(2-hydroxy-4-(trifluoromethyl)phenyl)pyrido [2,3-d]pyridazin-8-yl)-1-oxa-3,8-diazaspiro[4.5]decan-2-one]
264 | C[C@@H]1CN(c2nnc(-c3ccc(C(F)(F)F)cc3O)c3cnncc23)C[C@H](C)[C@]1(C)O [Example 13, (3S,4s,5R)-1-(4-(2-hydroxy-4-(trifluoromethyl)phenyl)pyridazino [4,5-d]pyridazin-1-yl)-3,4,5-trimethylpiperidin-4-ol]
221 | C[C@@H]1CN(c2nnc(-c3ccc(C(F)(F)F)cc3O)c3cccnc23)C[C@H](C)C1(F)F [Example 33, 2-(8-((cis)-4,4-difluoro-3,5-dimethylpiperidin-1-yl)pyrido[2,3-d]pyridazin-5-yl)-5-(trifluoromethyl)phenol]
201 | C[C@@H]1CN(c2nnc(-c3ccc(C(F)(F)F)cc3O)c3cnccc23)C[C@H](C)[C@]1(C)O [Example 17, (3S,4s,5R)-1-(4-(2-hydroxy-4-(trifluoromethyl)phenyl)pyrido[3,4-d]pyridazin-1-yl)-3,4,5-trimethylpiperidin-4-ol]
148 | O=C1NC2(CCN(c3nnc(-c4ccc(C(F)(F)F)cc4O)c4cccnc34)CC2)CO1 [Example 25, 8-(5-(2-hydroxy-4-(trifluoromethyl)phenyl)pyrido [2,3-d]pyridazin-8-yl)-3-oxa-1,8-diazaspiro[4.5]decan-2-one]
96 | C[C@@H]1CN(c2nnc(-c3ccc(C(F)(F)F)cc3O)c3cccnc23)C[C@H](C)S1(=O)=O [Example 26, (cis)-4-(5-(2-hydroxy-4-(trifluoromethyl)phenyl)pyrido [2,3-d]pyridazin-8-yl)-2,6-dimethylthiomorpholine 1,1-dioxide]
82 | C[C@@H]1CN(c2nnc(-c3ccc(C(F)(F)F)cc3O)c3ccncc23)C[C@H](C)O1 [Example 4, 2-(4-((cis)-2,6-dimethylmorpholino)pyrido[3,4-d]pyridazin-1-yl)-5-(trifluoromethyl)phenol]
80 | C[C@@H]1CN(c2nnc(-c3ccc(C(F)(F)F)cc3O)c3cnncc23)C[C@H](C)O1 [Example 9, 2-(4-((cis)-2,6-dimethylmorpholino)pyridazino[4,5-d]pyridazin-1-yl)-5-(trifluoromethyl)phenol]
70 | C[C@@H]1CN(c2nnc(-c3ccc(C(F)(F)F)cc3O)c3ccncc23)C[C@H](C)[C@]1(C)O (single isomer, unassigned) [Example 16]
52 | C[C@@H]1CN(c2nnc(-c3ccc(C(F)(F)F)cc3O)c3cccnc23)C[C@H](C)[C@]1(C)O [Example 24, (3S,4s,5R)-1-(5-(2-hydroxy-4-(trifluoromethyl)phenyl)pyrido [2,3-d]pyridazin-8-yl)-3,4,5-trimethylpiperidin-4-ol]
49 | C[C@]1(O)CCN(c2nnc(-c3ccc(C(F)(F)F)cc3O)c3ccncc23)C1 (single isomer, unassigned) [Example 2]
23 | C[C@@H]1CN(c2nnc(-c3ccc(C(F)(F)F)cc3O)c3ccncc23)C[C@H](C)[C@H]1O (single isomer, unassigned) [Example 18]
